In one assay the test system is pAMPK. Kind of assay: pAMPK immunoblotting in Beas2B cells (Table 1). The assay is classed as cell-based. The conditions noted are these: Homo sapiens, BEAS-2B, DMEM media without glucose, compounds 18 h. The procedure:
Additional compounds in Table 1 were or can be prepared according to the above-described Examples. Human bronchial epithelial cells (Beas2B) were seeded in 6-well plates for 18 h. Cells were then exposed to DMEM media without glucose and compounds at various concentrations for an additional 18 h before being collected for immunoblotting.
A general note: In western blotting, separated proteins are transferred to a membrane and probed.

The next assay concerns phospho-AMPK. Kind of assay: phospho-AMPK / p-ACC immunoblotting in Beas2B cells (in vitro studies). The assay is classed as cell-based, Human. The procedure: FIG. 3. (A) Beas2b cells were cultured in DMEM 2% media with glucose for 24 h before switching to glucose-free media. Cells were then exposed to either DMSO or Compound 1 (2 μM) in a time course before being collected for immunoblotting. (B) Beas2B cells were exposed to Compound 1 for 18 h at various doses before being collected for immunoblotting. (C) Beas2b cells were cultured in DMEM 2% media with glucose for 24 h before switching to glucose-free media. Cells were then exposed to AICAR at various doses with or without Compound 1 co-treatment. After 18 h, cells were collected before being assayed by immunoblotting.
(§1) FIG. 4. (A) Beas2b cells were cultured in DMEM 2% media with glucose for 24 h before switching to glucose-free media. Cells were then exposed to Compound 12 in a dose dependent manner for 18 h before being collected for immunoblotting. (B) Beas2b cells were cultured in DMEM 2% media with glucose for 24 h before Compound 12 treatment in a dose dependent manner. After 18 h, cells were then collected for immunoblotting. (C) Beas2b cells were cultured in DMEM 2% media with glucose for 24 h before switching to glucose-free media. Cells were then exposed to Compound 12 for 18 h before being collected for mRNA analysis. (D) 50K PBMC cells were cultured in 96 well plates before being exposed to Compound 12 for 4 h. Cells were then treated with LPS (10 ng/ml) for additional 2 h. Media were then collected and IL-1b concentration was determined by ELISA.
FIG. 9. (A) Beas2b cells were cultured in DMEM 2% media with glucose for 24 h before switching to glucose-free media. Cells were then exposed to Compound 23 or metformin in a dose dependent manner for 18 h before being collected for immunoblotting. (B) Beas2b cells were cultured in DMEM 2% media with glucose for 24 h before switching to glucose-free media and treated with Compound 12 or Compound 23 in a dose dependent manner. After 6 h, cells were then collected for immunoblotting. (C) Beas2b cells were cultured in DMEM 2% media with glucose for 24 h before switching to glucose-free media and treated with Compound 12 or Compound 23 in a dose dependent manner. After 18 h, cells were then collected for immunoblotting. (D) Beas2b cells were transfected with AMPK phospho mimic T172D or phospho dead T172A mutant for 24 h. Cells were then switched to glucose-free media and exposed to Compound 23 in a dose or time dependent manner before being collected for immunoblotting. (E) Beas2b cells were transfected with control siRNA or Fbxo48 siRNA for 48 h before switching to glucose-free media. Cells were then exposed to Compound 23 in a dose dependent manner before being collected for immunoblotting. (F) Compound 23 chemical structure.
Compound 1 was studied in in vitro assays using Beas2B cells. […]
Compound 23 was tested in in vitro studies using Beas2B cells and compared with metformin.

Another assay relates to PBMC cells. Kind of assay: LPS-induced cytokine release from PBMCs (ELISA). The assay is classed as cell-based. As for the experimental part: as §1
FIG. 10. (A) 50K PBMC cells were cultured in 96 well plates before being exposed to Compound 23 for 18 h. Cells were then treated with LPS (10 ng/ml) for additional 4 h. Media were then collected and TNF and IL-1b concentration were determined by ELISA. (B) PBMC cells (1 mL at 1.0×10^6/ml) were treated with Compound 23 (5 μM) for 18 h. Cells were then treated with 100 ng/ml LPS for 4 h. Cytokine release was monitored by the human cytokine array (R&D systems). The results from a cytokine array dot blot were quantitated and graphed.
A SAR study was performed by constructing analogs of Compound 1. […] Compound 12 was further tested in PBMCs. Briefly, PBMCs were treated with Compound 12 at various concentrations for 4 h before exposure to LPS (10 ng/ml) for 2 h.
Compound 23 was tested in in vitro inflammatory assays. 50K PBMC cells were cultured in 96 well plates before being exposed to Compound 23 for 18 h. Cells were then treated with LPS (10 ng/ml) for additional 4 h. Media were then collected and assayed for TNF and IL-1b. […] Cytokine arrays were used to profile which cyotokine/chemokines were regulated by Compound 23.
On the technique in general: In an ELISA, binding on a coated surface is turned into a signal by an enzyme label.

The next assay relates to mice. Kind of assay: LPS pneumonia model. The assay is classed as in vivo. Particulars: 2 or 10 mg/kg i.p., LPS 3 mg/kg i.t., 18 h. The procedure: FIG. 8. Compound 12 (2 or 10 mg/kg) was administered to mice though an i.p. injection, and mice were immediately challenged with LPS (E. coli, 3 mg/kg, i.t.) or without (control, CON) for an additional 18 h. Mice were then euthanized and lungs were lavaged with saline, harvested, and then homogenized. Lavage protein (H), cell counts (I) and cytokine secretions (E-G) were measured. Lungs were homogenized before being assayed by immunoblotting. The data are representative of data from n=5-6 mice/group, *P<0.05 versus vehicle. Serum cytokines (A-C) and peritoneal bacteria (D) were also measured.
FIG. 11. (A-B.) C57BL6 mice were administered i.p. vehicle, 0.08, 0.4, 2 or 10 mg/kg of Compound 23. After 10 min, mice were given LPS (E. coli, 3 mg/kg) through an i.p. injection and, after 2 h, mice were euthanized and blood collected for IL-6 and TNFα measurements. Shown in panels (A-B.) are the cytokine levels as a function of drug dose. The data represent n=3 mice/group at each dose. (C-G) Compound 23 (2 or 10 mg/kg) was administered to mice though an i.p. injection, and mice were immediately challenged with LPS (E. coli, 3 mg/kg, i.t.) or without (control, CON) for an additional 18 h. Mice were then euthanized and lungs were lavaged with saline, harvested, and then homogenized. Lavage protein (C), cell counts (D) and cytokine secretions (E-G) were measured. The data are representative of data from n=5 mice/group, *P<0.05 versus vehicle.
Compound 12 was tested in two pneumonia model using Pseudomonas or LPS endotoxin.
Compound 23 was tested in a sepsis model. Compound 23 was administered to mice at various doses through an i.p. injection, and 10 min later, mice were given LPS (E. coli; 3 mg/kg i.p.). After 2 h, mice were euthanized and blood was collected and assayed for IL-6 and TNFα cytokine levels. […] Finally, Compound 23 was tested in a pneumonia model using LPS endotoxin. […] Thus Compound 23 protects the lung against LPS induced lung injury.

The mark [1] stands for this setting: compound 18 h, then LPS 10 ng/ml 4 h.

The term IC50 denotes the concentration that inhibits the measured activity by half. `OC(COc1ccc(F)cc1)CN(Cc1ccccc1)Cc1ccccc1` (centres unmarked) [Compound 12] gave an IC50 in the assay with pAMPK below 1 µg/mL. In the assay with phospho-AMPK (Beas2b, with or without glucose, 18 h), the “concentration effectively increasing phospho-AMPK and downstream p-ACC levels” value is 100 to 500 nM. The “LPS induced IL-1 release from PBMCs” value with PBMC cells (compound 4 h, then LPS 10 ng/ml 2 h) is recorded as “potently inhibit”. Further, in the assay with mice, the lavage cell counts result is reported as “significantly decreased”, the lavage cytokine release result is “significantly decreased” and the lavage protein concentration result was “significantly decreased”. For the same molecule, in the assay with mice (immunoblotting), the “pAMPK levels within the lung tissue” value was “effectively increased”.

In the assay on pAMPK, `OC(COc1ccc(C(F)(F)F)cc1)CN(Cc1ccccc1)Cc1ccccc1` (centres unmarked) [Compound 23] displayed an IC50 below 1 µg/mL. The “level of AMPK T172D phospho mimic mutant” value in the assay with phospho-AMPK (Beas2b transfected with T172D mutant, glucose-free media) is “drastically increases”. For the same molecule, the “pAMPK and pACC levels after Fbxo48 knockdown” value with phospho-AMPK (Beas2b, Fbxo48 siRNA 48 h, glucose-free media) is listed as “not able to further activate the pathway”. In the assay with phospho-AMPK (Beas2b, glucose-free media, 6 h and 18 h), the “activity on pAMPK compared to Compound 12” value is reported as “comparable or slightly improved activity”. Moreover, in the assay with phospho-AMPK (Beas2b, glucose-free media, 18 h), the “concentration range increasing pAMPK phosphorylation and downstream substrate ACC phosphorylation” value is listed as “submicromolar”. Besides, in the assay on PBMC cells (setting [1]), the IL-1b in media entry is listed as “dose dependently decreased” and the TNF in media entry is “dose dependently decreased”. Further, in the assay on mice, the lavage cell counts result was “substantially decreased”, the lavage cytokine release result was “effectively reduces” and the lavage protein concentration result is listed as “substantially decreased”.
